Compound in one assay: O=[As]([O-])(O)O.[K+] [potassium arsenate]
Kind of assay: thermal stability z-score vs DMSO; higher = more thermally stabilized by treatment. As to conditions: HeLa; arsenate concentration 1 mM. The procedure: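 Cellular thermal proteome profiling in HeLa cells treated with 1 mM arsenate for 1 h (DMSO pretreatment), heated to ten temperatures (37-66.3 °C). Soluble protein was quantified by TMT mass spectrometry relative to DMSO controls; the thermal stability score was transformed to a z-score; mean of n = 3 experiments.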

Compound in another assay: NC(=O)CCCCC1CCSS1 [lipoamide]
The assay is described as above. As to conditions: HeLa, lipoamide concentration 100 µM. As to the method: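 Cellular thermal proteome profiling in HeLa cells. Cells were treated with 100 µM lipoamide for 1 h, with or without 1 mM arsenate for a further 1 h, then heated to ten temperatures (37-66.3 °C), and soluble protein was quantified by TMT mass spectrometry relative to 0.1% DMSO controls. The thermal stability score (sum of log2 fold changes minus the abundance score) was transformed to a z-score; mean of n = 3 experiments.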

Where [1] appears, read: arsenate co-treatment: 1 mM arsenate 1 h.
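Further: each temperature applied for 3 min, abundance score taken as mean log2 fold change at the two lowest temperatures, z-score obtained by mean subtraction and division by SD.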

Sequence of UniProt P21266 (P21266 whole entry): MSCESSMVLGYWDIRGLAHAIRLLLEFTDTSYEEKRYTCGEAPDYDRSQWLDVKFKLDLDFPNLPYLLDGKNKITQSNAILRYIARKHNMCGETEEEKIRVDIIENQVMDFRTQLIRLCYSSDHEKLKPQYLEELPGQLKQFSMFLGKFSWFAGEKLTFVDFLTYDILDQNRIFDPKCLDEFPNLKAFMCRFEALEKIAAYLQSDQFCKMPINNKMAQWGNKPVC
Sequence of UniProt Q6ZUT9 (Q6ZUT9 whole entry): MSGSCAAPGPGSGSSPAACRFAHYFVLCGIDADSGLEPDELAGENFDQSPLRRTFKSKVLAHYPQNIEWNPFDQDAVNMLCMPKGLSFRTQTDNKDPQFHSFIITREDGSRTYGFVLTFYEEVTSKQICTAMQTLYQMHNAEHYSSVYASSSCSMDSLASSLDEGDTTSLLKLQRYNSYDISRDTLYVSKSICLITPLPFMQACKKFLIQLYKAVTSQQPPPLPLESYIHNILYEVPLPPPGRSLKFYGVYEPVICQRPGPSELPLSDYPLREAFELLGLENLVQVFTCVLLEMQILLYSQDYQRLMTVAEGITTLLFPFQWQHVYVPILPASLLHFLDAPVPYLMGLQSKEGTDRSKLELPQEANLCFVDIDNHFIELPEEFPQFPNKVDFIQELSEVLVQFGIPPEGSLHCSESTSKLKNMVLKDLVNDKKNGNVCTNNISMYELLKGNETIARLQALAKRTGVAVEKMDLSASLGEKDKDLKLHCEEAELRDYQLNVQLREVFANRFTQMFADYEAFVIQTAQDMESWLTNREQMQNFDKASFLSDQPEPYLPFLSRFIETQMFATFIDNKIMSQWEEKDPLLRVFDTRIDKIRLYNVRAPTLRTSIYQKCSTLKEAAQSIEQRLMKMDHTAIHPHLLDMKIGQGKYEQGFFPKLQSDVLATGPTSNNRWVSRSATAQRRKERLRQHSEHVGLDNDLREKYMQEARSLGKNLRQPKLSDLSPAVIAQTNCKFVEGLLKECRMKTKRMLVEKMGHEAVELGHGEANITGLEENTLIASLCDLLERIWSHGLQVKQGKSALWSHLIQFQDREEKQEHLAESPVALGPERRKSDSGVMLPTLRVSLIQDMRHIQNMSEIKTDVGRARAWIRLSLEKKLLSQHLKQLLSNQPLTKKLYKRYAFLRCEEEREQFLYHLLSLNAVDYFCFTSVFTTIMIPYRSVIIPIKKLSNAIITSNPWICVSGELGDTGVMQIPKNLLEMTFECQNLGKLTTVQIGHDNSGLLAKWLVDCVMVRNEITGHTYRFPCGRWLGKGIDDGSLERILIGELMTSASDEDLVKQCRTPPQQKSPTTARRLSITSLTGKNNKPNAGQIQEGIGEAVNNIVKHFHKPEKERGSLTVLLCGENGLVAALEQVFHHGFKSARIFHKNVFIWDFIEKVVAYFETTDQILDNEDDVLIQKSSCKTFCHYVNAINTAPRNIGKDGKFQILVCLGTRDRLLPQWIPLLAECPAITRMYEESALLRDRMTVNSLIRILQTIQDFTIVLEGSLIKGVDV
Sequence of UniProt O00408 (O00408 whole entry): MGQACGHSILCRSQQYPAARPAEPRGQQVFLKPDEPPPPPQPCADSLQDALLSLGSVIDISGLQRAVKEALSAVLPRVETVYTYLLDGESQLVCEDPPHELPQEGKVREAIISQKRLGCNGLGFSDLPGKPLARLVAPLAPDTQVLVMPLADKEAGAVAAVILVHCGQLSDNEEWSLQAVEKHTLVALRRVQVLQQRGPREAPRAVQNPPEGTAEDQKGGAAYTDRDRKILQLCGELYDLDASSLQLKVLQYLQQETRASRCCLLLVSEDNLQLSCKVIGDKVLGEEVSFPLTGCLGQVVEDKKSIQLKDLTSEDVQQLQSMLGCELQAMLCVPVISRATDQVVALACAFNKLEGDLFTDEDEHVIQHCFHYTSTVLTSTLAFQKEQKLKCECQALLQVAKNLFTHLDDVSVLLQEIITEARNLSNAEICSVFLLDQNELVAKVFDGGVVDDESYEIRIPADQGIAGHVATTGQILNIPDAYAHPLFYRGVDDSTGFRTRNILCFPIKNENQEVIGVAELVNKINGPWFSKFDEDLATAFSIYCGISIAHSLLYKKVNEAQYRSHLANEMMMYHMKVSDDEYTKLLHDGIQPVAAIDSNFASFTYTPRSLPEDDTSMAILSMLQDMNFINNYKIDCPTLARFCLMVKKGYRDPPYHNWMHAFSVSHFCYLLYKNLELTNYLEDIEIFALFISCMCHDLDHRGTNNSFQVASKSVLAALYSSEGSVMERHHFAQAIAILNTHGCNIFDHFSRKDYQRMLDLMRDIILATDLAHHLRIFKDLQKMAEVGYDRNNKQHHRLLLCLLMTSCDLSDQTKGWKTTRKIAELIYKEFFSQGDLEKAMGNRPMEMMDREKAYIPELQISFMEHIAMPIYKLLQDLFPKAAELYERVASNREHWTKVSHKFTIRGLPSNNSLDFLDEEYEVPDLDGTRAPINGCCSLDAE
Sequence of UniProt Q5VWQ8 (Q5VWQ8 whole entry): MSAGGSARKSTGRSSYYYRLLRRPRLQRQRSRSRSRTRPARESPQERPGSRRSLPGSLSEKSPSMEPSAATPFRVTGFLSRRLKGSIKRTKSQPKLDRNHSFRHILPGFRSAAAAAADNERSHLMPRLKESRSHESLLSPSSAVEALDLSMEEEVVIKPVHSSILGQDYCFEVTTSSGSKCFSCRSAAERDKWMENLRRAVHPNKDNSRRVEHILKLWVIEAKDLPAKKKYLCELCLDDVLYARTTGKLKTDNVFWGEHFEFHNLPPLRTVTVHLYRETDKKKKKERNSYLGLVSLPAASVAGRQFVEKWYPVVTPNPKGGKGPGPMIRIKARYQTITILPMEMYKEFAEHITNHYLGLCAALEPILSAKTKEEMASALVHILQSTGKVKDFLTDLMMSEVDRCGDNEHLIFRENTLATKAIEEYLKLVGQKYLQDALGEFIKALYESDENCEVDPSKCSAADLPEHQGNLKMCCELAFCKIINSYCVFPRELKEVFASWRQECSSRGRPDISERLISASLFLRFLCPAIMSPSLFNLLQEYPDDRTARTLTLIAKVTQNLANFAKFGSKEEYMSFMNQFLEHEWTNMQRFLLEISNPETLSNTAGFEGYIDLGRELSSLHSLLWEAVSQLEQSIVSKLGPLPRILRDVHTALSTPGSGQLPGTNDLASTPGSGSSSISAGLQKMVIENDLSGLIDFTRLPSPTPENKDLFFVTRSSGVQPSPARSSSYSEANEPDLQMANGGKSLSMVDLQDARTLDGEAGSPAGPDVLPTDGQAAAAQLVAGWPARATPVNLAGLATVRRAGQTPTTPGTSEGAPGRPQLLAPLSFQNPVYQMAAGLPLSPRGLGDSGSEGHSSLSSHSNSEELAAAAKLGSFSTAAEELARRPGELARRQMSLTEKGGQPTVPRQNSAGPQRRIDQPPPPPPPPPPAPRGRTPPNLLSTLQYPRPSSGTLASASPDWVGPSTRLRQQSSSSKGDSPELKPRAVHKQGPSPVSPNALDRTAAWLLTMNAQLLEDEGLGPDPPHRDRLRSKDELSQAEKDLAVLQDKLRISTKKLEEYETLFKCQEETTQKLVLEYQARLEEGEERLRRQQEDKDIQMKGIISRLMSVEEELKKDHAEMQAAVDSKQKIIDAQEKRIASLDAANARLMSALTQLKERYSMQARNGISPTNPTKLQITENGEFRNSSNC
Sequence of UniProt Q8N0U8 (Q8N0U8 whole entry): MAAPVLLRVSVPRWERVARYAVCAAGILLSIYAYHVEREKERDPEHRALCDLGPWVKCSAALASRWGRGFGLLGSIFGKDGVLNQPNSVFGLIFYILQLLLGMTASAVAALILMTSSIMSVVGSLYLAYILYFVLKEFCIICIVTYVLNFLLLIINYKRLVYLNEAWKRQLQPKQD
Sequence of UniProt O95672 (O95672 whole entry): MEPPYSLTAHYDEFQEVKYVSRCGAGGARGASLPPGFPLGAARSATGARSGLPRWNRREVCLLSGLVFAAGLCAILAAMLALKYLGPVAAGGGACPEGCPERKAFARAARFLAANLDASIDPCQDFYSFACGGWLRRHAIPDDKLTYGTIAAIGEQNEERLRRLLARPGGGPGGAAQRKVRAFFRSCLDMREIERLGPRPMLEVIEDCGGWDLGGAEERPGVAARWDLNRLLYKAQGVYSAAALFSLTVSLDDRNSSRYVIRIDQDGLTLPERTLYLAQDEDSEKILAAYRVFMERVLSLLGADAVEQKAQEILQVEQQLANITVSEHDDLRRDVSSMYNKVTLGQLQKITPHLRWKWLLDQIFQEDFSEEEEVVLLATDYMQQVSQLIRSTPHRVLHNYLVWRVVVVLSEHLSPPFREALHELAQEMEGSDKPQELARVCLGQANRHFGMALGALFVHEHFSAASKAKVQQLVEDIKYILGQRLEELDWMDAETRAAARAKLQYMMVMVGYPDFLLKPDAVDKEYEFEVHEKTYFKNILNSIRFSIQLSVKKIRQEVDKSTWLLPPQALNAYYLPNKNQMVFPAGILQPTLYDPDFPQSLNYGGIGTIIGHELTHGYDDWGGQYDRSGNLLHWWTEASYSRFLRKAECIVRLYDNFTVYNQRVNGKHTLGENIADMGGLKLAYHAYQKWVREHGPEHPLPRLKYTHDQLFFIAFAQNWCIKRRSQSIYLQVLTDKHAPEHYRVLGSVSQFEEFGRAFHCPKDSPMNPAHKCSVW
Sequence of UniProt Q9H7Z6 (Q9H7Z6 whole entry): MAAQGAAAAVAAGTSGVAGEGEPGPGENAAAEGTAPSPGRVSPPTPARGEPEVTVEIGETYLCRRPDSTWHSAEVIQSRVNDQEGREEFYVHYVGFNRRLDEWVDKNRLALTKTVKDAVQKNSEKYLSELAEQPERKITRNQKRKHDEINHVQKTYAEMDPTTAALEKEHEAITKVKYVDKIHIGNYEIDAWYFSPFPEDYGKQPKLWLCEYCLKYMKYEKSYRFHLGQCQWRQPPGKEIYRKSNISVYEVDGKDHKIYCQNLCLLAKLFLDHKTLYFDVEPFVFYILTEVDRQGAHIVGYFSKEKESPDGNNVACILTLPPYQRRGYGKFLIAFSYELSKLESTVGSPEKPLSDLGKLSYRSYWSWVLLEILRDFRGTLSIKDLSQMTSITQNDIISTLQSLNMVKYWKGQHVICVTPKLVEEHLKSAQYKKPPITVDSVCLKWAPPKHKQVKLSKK

As for CTR9 (UniProt Q6PD62), the values for the thermal stability z-score with potassium arsenate, with lipoamide (setting [1]) and with lipoamide (arsenate co-treatment: none) were 0.243, 0.156 and 0.203, respectively.
As to PRPF18 (UniProt Q99633), the values for the thermal stability z-score with potassium arsenate, with lipoamide (setting [1]) and with lipoamide (arsenate co-treatment: none) were -0.321, -0.378 and 0.186, respectively.
In the same order, the values of AARS2 (UniProt Q5JTZ9) are -0.095, -0.428 and -0.143.
The matching figures for SLC35D1 (UniProt Q9NTN3): -1.34, -2.29 and -2.36.
The matching figures for CKS1B (UniProt P61024): 0.573, 0.525 and 0.603.
Consider VAPB (UniProt O95292), for which the thermal stability z-score with potassium arsenate is -0.178; with lipoamide (setting [1]), -0.055; with lipoamide (arsenate co-treatment: none) it was 0.415.
The matching figures for PSME3 (UniProt P61289): 0.504, 0.957 and 0.849.
In the same order, the values of NXF1 (UniProt Q9UBU9) are -0.127, 0.0906 and 0.0765.
TRIM5 (UniProt Q9C035): the thermal stability z-score was 0.259 with potassium arsenate, 0.224 with lipoamide (setting [1]) and 0.183 with lipoamide (arsenate co-treatment: none).
The matching figures for EXT2 (UniProt Q93063): -0.573, -1.16 and -0.953.
The matching figures for KAT8 (UniProt Q9H7Z6): -0.509, 0.773 and -0.409.
For the target PTPRS (UniProt Q13332), the thermal stability z-score is -0.0489 with potassium arsenate, -0.214 with lipoamide (setting [1]) and -0.198 with lipoamide (arsenate co-treatment: none).
In the same order, the values of DENND5B (UniProt Q6ZUT9) are 0.148, 0.0786 and 0.0385.
Consider CEBPB (UniProt P17676), for which the thermal stability z-score with potassium arsenate is -0.856; in the assay with lipoamide (setting [1]), -0.261; with lipoamide (arsenate co-treatment: none) it was -1.23.
The matching figures for SOX13 (UniProt Q9UN79): -0.618, -0.169 and 0.00372.
Regarding BIRC5 (UniProt O15392), the figures for the thermal stability z-score with potassium arsenate, with lipoamide (setting [1]) and with lipoamide (arsenate co-treatment: none) were 0.136, 0.166 and 0.186, respectively.
In the same order, the values of ECEL1 (UniProt O95672) are 1.11, -1.25 and -0.891.
The matching figures for TSC22D1 (UniProt Q15714): 0.629, 0.404 and 0.657.
The matching figures for UBXN6 (UniProt Q9BZV1): -0.12, -0.186 and -0.134.
GSTM3 (UniProt P21266): the values for the thermal stability z-score in the assay with potassium arsenate, with lipoamide (setting [1]) and with lipoamide (arsenate co-treatment: none) were 1.48, 0.731 and 0.402, respectively.
For the target KCTD1 (UniProt Q719H9), the thermal stability z-score was -1.07 in the assay with potassium arsenate, 1.16 with lipoamide (setting [1]) and 0.0871 in the assay with lipoamide (arsenate co-treatment: none).
The matching figures for MAPK14 (UniProt Q16539): 0.772, 0.87 and -0.0481.
As to GTPBP3 (UniProt Q969Y2), the thermal stability z-score with potassium arsenate was found to be 0.354; with lipoamide (setting [1]), 0.357; with lipoamide (arsenate co-treatment: none) it was 0.272.
The matching figures for MRPS6 (UniProt P82932): -0.516, -0.216 and -0.13.
In the same order, the values of PDE2A (UniProt O00408) are -0.355, -0.284 and 0.382.
In the same order, the values of NAXE (UniProt Q8NCW5) are -0.422, 0.137 and 0.266.
As for ATF7IP (UniProt Q6VMQ6), the figures for the thermal stability z-score with potassium arsenate, with lipoamide (setting [1]) and with lipoamide (arsenate co-treatment: none) were -0.304, 0.974 and 0.0822, respectively.
In the case of DCTPP1 (UniProt Q9H773), the results for the thermal stability z-score in the assay with potassium arsenate, in the assay with lipoamide (setting [1]) and with lipoamide (arsenate co-treatment: none) were 0.499, 1.22 and 0.682, respectively.
Take ZNF787 (UniProt Q6DD87): the figures for the thermal stability z-score in the assay with potassium arsenate, with lipoamide (setting [1]) and in the assay with lipoamide (arsenate co-treatment: none) were 0.223, 0.853 and 1.17, respectively.
The matching figures for PPP3R1 (UniProt P63098): 0.32, 0.0623 and 0.412.
In the same order, the values of NUP93 (UniProt Q8N1F7) are 0.232, -0.614 and -0.482.
On to ROCK2 (UniProt O75116), for which the thermal stability z-score came out at 0.245 with potassium arsenate, 0.504 in the assay with lipoamide (setting [1]) and 0.462 with lipoamide (arsenate co-treatment: none).
With CHMP2A (UniProt O43633), the thermal stability z-score with potassium arsenate was 0.392; with lipoamide (setting [1]), -0.041; with lipoamide (arsenate co-treatment: none) it was 0.185.
Take DCUN1D1 (UniProt Q96GG9): the thermal stability z-score was 0.0368 with potassium arsenate, -0.437 with lipoamide (setting [1]) and -0.535 in the assay with lipoamide (arsenate co-treatment: none).
For GNE (UniProt Q9Y223), the thermal stability z-score with potassium arsenate is 0.317; with lipoamide (setting [1]) it was 0.652; in the assay with lipoamide (arsenate co-treatment: none), 0.274.
RANBP1 (UniProt P43487): the values for the thermal stability z-score with potassium arsenate, with lipoamide (setting [1]) and with lipoamide (arsenate co-treatment: none) were 0.475, -0.127 and 0.319, respectively.
The matching figures for PSMA5 (UniProt P28066): -0.238, 0.148 and 0.204.
In the same order, the values of ARID4B (UniProt Q4LE39) are -0.419, 0.0389 and 0.0738.
The matching figures for VKORC1L1 (UniProt Q8N0U8): 0.544, 0.529 and -0.318.
As to DAB2IP (UniProt Q5VWQ8), the thermal stability z-score was -0.398 in the assay with potassium arsenate, -0.101 with lipoamide (setting [1]) and -0.023 in the assay with lipoamide (arsenate co-treatment: none).
The matching figures for TBC1D2B (UniProt Q9UPU7): -0.23, -0.169 and -0.202.
Take RNASEH2B (UniProt Q5TBB1): the thermal stability z-score with potassium arsenate is -0.161; with lipoamide (setting [1]), 0.719; with lipoamide (arsenate co-treatment: none), 0.517.

These data come from the supplement of paper PMC12463676, “Small-molecule dissolution of stress granules by redox modulation benefits ALS models” (Nature Chemical Biology, 2025).
